In ChEMBL document CHEMBL5154644, “Design, Synthesis, and Structure-Activity Relationship Optimization of Pyrazolopyrimidine Amide Inhibitors of Phosphoinositide 3-Kinase γ (PI3Kγ)” (J Med Chem, 2022):

How the values were obtained:
[1] = Hepatic clearance in Sprague-Dawley rat by LC-MS/MS analysis; type: ADME; conditions: in vivo
[2] = target: T1, Phosphatidylinositol 4,5-bisphosphate 3-kinase catalytic subunit gamma isoform (Homo sapiens, UniProt P48736); assay: Inhibition of PI3Kgamma (unknown origin) in […] stimulated human THP-1 cells assessed as reduction in Akt phosphorylation level at Ser473 residue preincubated for 60 mins followed by rhMCP-1 stimulation and measured after 2 mins by AlphaLisa assay; type: cell-based
[3] = target: T1, Phosphatidylinositol 4,5-bisphosphate 3-kinase catalytic subunit gamma isoform; assay: Inhibition of PI3Kgamma (unknown origin) using PIP2 as substrate preincubated for 1 hr followed by substrate addition and measured after 60 mins in presence of ATP by ADP-glo assay
[4] = Metabolic stability in human hepatocytes assessed as intrinsic clearance per 10^6 cells at 0.5 uM by LC-MS/MS analysis; type: ADME, cell-based, Hepatocyte; conditions: read-out: CLH
[5] = Metabolic stability in rat hepatocyte assessed as intrinsic clearance per 10^8 cells at 0.5 uM by LC-MS/MS analysis; type: ADME, cell-based; conditions: hepatocytes
[6] = target: T1, Phosphatidylinositol 4,5-bisphosphate 3-kinase catalytic subunit gamma isoform; assay: Inhibition of PI3Kgamma in SDF-1alpha stimulated human whole blood assessed as reduction in phospho-AKT kinase activity preincubated for 1 hr followed by SDF-1alpha stimulation and measured after 2 mins by flow cytometric analysis; type: tissue-based
[7] = target: Phosphatidylinositol 4,5-bisphosphate 3-kinase catalytic subunit alpha isoform (Homo sapiens, UniProt P42336); assay: Inhibition of PI3Kalpha (unknown origin) using PIP2 as substrate preincubated for 1 hr followed by substrate addition and measured after 60 mins in presence of ATP by ADP-glo assay
[8] = target: T2, Phosphatidylinositol 4,5-bisphosphate 3-kinase catalytic subunit delta isoform (Homo sapiens, UniProt O00329); assay: Inhibition of PI3Kdelta (unknown origin) using PIP2 as substrate preincubated for 1 hr followed by substrate addition and measured after 60 mins in presence of ATP by ADP-glo assay
T2 sequence (O00329 whole entry): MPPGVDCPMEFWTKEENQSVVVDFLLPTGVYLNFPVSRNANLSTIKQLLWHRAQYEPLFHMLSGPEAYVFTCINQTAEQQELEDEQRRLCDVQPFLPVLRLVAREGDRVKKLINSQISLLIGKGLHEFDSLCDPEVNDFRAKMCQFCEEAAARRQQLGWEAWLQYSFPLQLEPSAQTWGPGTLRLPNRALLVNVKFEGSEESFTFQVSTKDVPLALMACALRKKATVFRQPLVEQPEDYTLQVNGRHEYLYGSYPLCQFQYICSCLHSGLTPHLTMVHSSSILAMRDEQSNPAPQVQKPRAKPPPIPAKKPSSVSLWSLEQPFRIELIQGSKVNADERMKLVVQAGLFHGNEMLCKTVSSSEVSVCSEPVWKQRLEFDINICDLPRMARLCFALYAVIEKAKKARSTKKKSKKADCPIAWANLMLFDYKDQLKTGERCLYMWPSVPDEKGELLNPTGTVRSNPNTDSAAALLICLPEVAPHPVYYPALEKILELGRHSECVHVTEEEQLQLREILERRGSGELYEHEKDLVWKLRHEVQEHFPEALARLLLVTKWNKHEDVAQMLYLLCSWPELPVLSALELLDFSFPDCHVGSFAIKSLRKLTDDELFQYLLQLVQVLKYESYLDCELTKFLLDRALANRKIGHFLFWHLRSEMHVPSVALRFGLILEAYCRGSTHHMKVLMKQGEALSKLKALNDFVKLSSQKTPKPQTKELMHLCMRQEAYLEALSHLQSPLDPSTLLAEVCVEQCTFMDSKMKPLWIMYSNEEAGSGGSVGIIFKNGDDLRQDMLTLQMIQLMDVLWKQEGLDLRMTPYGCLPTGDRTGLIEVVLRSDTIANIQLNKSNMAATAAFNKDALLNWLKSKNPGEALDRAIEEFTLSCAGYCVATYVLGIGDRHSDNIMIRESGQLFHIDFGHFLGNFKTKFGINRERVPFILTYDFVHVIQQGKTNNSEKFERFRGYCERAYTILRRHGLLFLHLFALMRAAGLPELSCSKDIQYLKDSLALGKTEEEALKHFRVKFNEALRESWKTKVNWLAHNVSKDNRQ

Homo sapiens [9] = species: Homo sapiens; assay: Selectivity ratio of IC50 for inhibition of PI3Kalpha (unknown origin) to IC50 for inhibition of PI3Kgamma (unknown origin)
[10] = target: Phosphatidylinositol 4,5-bisphosphate 3-kinase catalytic subunit beta isoform (Homo sapiens, UniProt P42338); assay: Inhibition of PI3Kbeta (unknown origin) using PIP2 as substrate preincubated for 1 hr followed by substrate addition and measured after 60 mins in presence of ATP by ADP-glo assay
Homo sapiens [11] = species: Homo sapiens; assay: Selectivity ratio of IC50 for inhibition of PI3Kbeta (unknown origin) to IC50 for inhibition of PI3Kgamma (unknown origin)
hERG [12] = target: T3, hERG (Homo sapiens, UniProt Q12809); assay: Inhibition of human ERG at 3 uM by patch clamp assay relative to control; type: toxicity
hERG [13] = target: T3, hERG; assay: Inhibition of human ERG at 10 uM by patch clamp assay relative to control; type: toxicity
CYP3A4 = CYP3A4 (Homo sapiens, UniProt P08684); assay: in vitro; conditions: human liver microsomes, probe midazolam
Sequence of CYP3A4 (P08684 whole entry): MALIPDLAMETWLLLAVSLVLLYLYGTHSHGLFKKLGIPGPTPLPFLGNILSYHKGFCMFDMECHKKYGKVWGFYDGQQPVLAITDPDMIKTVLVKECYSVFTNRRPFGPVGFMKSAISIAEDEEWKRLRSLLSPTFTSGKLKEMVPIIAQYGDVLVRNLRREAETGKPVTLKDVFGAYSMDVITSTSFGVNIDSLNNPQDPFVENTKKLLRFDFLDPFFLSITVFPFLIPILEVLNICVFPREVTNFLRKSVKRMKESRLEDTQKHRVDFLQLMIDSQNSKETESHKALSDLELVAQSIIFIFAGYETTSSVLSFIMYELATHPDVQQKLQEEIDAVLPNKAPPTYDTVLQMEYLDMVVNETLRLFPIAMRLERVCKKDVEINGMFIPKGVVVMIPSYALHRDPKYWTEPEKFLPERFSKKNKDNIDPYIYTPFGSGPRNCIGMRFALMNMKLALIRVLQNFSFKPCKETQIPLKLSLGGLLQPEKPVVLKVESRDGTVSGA
Description: Time dependent inhibition of CYP3A4 in human liver microsomes at 10 uM using midazolam as substrate preincubated for 30 mins in presence of NADPH by LC/MS/MS analysis relative to control

T1 sequence (P48736 whole entry, canonical isoform): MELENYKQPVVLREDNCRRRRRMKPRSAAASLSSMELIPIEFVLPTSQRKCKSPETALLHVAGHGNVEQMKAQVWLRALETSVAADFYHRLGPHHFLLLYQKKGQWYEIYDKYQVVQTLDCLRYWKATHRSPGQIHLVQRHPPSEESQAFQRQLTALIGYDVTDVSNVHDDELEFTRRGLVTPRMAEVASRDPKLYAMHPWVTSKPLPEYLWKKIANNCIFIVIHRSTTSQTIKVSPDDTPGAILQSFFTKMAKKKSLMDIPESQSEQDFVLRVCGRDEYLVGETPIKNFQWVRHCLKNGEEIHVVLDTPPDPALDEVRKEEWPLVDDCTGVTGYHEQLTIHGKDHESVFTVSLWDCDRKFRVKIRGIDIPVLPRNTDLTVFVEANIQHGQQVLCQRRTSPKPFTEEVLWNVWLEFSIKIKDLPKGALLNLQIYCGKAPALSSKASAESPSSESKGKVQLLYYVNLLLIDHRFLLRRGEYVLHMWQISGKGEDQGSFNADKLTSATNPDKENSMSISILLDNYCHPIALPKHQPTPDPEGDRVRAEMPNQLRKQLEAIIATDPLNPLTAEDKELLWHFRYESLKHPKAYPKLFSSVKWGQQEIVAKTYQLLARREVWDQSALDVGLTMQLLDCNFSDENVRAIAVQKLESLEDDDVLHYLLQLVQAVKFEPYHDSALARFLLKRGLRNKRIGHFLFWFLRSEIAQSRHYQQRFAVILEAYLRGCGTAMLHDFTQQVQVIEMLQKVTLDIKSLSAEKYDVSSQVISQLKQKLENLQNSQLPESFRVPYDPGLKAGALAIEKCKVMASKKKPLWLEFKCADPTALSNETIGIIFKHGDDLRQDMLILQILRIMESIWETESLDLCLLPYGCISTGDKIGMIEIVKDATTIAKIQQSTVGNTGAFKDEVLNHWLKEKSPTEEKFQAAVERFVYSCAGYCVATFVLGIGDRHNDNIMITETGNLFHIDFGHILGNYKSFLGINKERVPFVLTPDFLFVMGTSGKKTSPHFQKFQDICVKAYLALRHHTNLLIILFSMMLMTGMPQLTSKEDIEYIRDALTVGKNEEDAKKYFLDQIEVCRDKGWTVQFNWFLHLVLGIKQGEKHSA
T3 sequence (Q12809 whole entry): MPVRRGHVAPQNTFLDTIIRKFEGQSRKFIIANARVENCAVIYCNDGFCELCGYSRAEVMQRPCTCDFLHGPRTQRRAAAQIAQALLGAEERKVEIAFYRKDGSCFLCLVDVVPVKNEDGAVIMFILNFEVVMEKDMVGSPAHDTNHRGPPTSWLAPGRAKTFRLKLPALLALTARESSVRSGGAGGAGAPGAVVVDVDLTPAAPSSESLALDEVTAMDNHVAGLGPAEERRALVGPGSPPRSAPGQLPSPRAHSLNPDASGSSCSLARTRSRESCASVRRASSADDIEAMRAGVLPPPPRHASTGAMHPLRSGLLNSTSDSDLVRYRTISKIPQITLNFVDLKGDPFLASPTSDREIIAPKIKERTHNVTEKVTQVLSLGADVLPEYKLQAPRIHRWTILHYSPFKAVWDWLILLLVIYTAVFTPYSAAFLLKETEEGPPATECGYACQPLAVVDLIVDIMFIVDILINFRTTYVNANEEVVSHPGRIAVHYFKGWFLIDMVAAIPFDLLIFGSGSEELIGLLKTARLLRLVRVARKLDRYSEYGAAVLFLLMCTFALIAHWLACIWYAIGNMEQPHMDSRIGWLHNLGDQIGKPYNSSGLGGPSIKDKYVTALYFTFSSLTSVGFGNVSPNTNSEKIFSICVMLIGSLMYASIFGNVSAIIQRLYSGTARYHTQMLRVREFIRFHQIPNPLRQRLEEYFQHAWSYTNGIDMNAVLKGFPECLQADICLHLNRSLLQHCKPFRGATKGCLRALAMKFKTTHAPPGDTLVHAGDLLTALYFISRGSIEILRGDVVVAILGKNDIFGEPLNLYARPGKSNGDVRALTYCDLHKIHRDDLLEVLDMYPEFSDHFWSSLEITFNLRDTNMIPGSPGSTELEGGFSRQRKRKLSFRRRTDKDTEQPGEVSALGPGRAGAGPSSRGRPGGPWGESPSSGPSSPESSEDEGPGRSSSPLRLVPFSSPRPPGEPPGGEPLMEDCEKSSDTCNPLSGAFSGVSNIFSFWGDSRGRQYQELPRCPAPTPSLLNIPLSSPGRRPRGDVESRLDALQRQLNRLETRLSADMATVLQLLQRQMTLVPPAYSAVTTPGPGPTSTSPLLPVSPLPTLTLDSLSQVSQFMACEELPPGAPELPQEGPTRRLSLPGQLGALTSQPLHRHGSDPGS
Sequence of Phosphatidylinositol 4,5-bisphosphate 3-kinase catalytic subunit beta isoform (P42338 whole entry, canonical isoform): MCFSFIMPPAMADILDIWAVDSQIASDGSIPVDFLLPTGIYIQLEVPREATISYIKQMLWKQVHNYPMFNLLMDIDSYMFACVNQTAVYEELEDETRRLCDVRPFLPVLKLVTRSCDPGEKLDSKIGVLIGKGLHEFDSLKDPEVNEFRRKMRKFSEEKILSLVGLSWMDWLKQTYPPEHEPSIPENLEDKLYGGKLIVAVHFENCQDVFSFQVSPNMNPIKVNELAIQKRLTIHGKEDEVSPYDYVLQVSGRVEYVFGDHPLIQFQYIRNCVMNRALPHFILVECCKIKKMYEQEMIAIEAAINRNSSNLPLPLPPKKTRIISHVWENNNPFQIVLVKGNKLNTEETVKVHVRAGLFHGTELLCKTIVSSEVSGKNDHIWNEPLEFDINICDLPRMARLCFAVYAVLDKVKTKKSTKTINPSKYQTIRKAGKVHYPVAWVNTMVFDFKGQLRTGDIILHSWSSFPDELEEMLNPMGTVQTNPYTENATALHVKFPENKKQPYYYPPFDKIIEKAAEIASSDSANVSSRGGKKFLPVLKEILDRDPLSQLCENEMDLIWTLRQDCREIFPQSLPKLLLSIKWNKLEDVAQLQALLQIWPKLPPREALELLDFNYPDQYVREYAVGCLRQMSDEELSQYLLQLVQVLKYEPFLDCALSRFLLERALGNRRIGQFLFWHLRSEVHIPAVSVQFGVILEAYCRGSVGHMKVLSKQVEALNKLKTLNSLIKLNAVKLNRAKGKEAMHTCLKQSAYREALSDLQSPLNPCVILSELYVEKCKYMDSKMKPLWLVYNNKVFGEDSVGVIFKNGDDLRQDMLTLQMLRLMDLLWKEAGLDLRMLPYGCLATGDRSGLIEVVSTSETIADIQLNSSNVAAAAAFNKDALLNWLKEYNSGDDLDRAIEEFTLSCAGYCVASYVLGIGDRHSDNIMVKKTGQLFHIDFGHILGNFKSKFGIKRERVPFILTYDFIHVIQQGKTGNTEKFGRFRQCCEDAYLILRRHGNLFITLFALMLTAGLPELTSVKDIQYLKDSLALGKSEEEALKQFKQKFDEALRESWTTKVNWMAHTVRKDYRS
Sequence of Phosphatidylinositol 4,5-bisphosphate 3-kinase catalytic subunit alpha isoform (P42336 whole entry, canonical isoform): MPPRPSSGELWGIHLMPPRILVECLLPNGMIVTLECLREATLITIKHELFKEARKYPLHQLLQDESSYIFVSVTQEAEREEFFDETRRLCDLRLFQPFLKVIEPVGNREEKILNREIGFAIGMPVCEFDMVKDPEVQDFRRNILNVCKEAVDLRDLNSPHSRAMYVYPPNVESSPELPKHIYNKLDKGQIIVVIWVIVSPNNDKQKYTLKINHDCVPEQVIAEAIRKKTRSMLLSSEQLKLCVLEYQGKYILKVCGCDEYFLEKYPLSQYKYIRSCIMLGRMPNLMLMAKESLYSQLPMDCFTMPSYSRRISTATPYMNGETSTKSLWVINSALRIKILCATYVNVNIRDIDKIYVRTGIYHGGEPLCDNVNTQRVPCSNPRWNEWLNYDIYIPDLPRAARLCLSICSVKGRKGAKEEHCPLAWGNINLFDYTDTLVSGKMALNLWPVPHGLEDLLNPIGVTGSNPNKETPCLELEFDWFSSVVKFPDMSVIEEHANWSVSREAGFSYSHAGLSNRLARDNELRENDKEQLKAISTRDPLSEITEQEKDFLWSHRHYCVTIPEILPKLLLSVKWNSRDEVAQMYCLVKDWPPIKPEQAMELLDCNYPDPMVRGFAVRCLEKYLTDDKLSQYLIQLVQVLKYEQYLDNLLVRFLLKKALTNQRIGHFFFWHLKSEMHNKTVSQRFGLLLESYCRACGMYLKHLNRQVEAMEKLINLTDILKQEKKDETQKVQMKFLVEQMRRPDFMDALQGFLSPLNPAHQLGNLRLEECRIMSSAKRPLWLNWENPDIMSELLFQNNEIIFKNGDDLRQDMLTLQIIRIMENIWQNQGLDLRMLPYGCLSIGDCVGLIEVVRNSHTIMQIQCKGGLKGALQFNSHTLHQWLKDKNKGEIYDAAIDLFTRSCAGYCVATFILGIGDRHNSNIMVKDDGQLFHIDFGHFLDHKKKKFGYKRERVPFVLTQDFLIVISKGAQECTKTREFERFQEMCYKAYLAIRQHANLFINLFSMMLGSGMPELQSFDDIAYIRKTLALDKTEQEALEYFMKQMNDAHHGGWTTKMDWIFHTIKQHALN

SMILES: C[C@@H](C1CC1)N1Cc2cc(-c3ccn4nc(N)c(C(=O)N[C@H]5CC[C@](O)(C(F)(F)F)CC5)c4n3)cc(NS(C)(=O)=O)c2C1=O
- CLH [1]: 23.3 mL/min/kg
- IC50 [2]: 52 nM
- IC50 [3]: 2.1 nM
- hepatocyte CLint at 0.5 µM [4]: 1.9 µL/min/1e6 cells
- hepatocyte intrinsic clearance [5]: 11 µL/min
- IC50 [6]: 210 nM
- IC50 [7]: 4030 nM
- IC50 [8]: 1060 nM
- Ratio IC50 (Homo sapiens [9]): 1880
- IC50 [10]: 9780 nM
- Ratio IC50 (Homo sapiens [11]): 4560
- inhibition at 3 µM (hERG [12]): 45%
- inhibition at 10 µM (hERG [13]): 68%
- inhibition at 30 min, 10 µM (CYP3A4): 17%
